Laboratory results from paper PMC5041076, “Ilex kaushue and Its Bioactive Component 3,5-Dicaffeoylquinic Acid Protected Mice from Lipopolysaccharide-Induced Acute Lung Injury” (Scientific Reports, 2016).
Where two headings read alike, the source gives them in different places.

Key:
Human thrombin = Human thrombin (Homo sapiens, UniProt P00734); experiment: Serine protease enzyme inhibition assay, thrombin
[1] = system: fMLF/CB-activated neutrophils; experiment: O2.- generation in fMLF/CB-activated neutrophils (ferricytochrome c reduction); type: cell-based, human; settings: fMLF/CB-activated human neutrophils
Protocol: (§1) All assays were performed as described previously[58],[59]. Neutrophils isolated from the blood of healthy volunteers (20–30 years old) were resuspended in a Ca^2+-free HBSS buffer (pH 7.4) at 4 °C before use. O2^.− generation was measured based on reduction of ferricytochrome c. In brief, after supplementation with 0.5 mg/ml ferricytochrome c and 1 mM Ca^2+, neutrophils were equilibrated at 37 °C for 2 min and incubated with the specified drugs for 5 min. Neutrophils were activated using 30 nM fMLF or 100 nM LTB4 for 10 min after addition of cytochalasin B (CB, 1 μg/mL) for 3 min. Changes in absorbance concomitant with reduction of ferricytochrome c at 550 nm were continuously monitored. For elastase release, neutrophils (6 × 10^5 cells/mL) were mixed with methoxysuccinyl-Ala-Ala-Pro-Val-pNA (100 μM) substrate at 37 °C for 5 min. […] Inhibition of superoxide generation and elastase release were calculated in keeping with previous reports.

[2] = molecular target: T1, Human neutrophil elastase (Homo sapiens, UniProt P08246); experiment: Serine protease enzyme inhibition assay, HNE; type: biochemical; settings: for Inh % (HNE inhibition): at 30 M (so in the source); for selectivity of inhibitory effect among serine proteases: five serine proteases examined
T1 construct: purchased Enzo BML-SE284
T1 sequence (P08246 30-267): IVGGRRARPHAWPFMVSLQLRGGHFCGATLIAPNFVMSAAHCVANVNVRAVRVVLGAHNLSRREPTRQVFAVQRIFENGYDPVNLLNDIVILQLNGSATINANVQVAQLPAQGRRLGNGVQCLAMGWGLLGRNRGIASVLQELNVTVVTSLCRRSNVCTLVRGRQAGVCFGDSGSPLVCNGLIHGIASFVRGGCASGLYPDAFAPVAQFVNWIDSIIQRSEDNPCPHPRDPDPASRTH

[3] = system: fMLF/CB-activated neutrophils; experiment: Elastase release in fMLF/CB-activated neutrophils; type: cell-based; settings: for IC50: read-out: IC50 HNE (NE activity / elastase release)
Protocol: as §1

Human cathepsin G = molecular target: T2, Human cathepsin G (Homo sapiens, UniProt P08311); experiment: Serine protease enzyme inhibition assay, cathepsin G; type: biochemical; settings: mean ± S.E.M. (n ≥ 3)
T2 construct: purchased Enzo BML-SE283
T2 sequence (P08311 21-255): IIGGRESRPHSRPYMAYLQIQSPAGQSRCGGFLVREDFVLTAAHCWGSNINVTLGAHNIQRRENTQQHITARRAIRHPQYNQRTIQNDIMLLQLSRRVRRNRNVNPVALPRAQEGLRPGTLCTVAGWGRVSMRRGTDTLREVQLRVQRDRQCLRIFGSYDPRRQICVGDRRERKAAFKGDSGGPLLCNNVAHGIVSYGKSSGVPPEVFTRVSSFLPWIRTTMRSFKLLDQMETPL

Human proteinase 3 = molecular target: T3, Human proteinase 3 (Homo sapiens, UniProt P24158); experiment: Serine protease enzyme inhibition assay, proteinase 3; type: biochemical; settings: mean ± S.E.M. (n ≥ 3)
T3 construct: purchased Merk 539483
T3 sequence (P24158 28-256): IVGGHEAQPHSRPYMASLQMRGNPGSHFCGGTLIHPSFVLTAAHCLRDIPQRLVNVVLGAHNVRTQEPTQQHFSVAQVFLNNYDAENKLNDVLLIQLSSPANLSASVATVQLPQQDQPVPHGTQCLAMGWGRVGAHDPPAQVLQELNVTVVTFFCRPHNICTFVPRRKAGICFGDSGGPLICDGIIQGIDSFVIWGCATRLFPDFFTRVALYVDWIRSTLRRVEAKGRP

Bovine chymotrypsin = molecular target: T4, Bovine chymotrypsin (Bos taurus, UniProt P00766); experiment: Serine protease enzyme inhibition assay, chymotrypsin; type: biochemical; settings: mean ± S.E.M. (n ≥ 3)
T4 construct: purchased Sigma-Aldrich C4129

[4] = Table S3, read-out: IC50 HNE inhibitory activity
[5] = enzyme assay, mean ± S.E.M. (n ≥ 3), read-out: IC50 HNE
[6] = read-out: IC50 Thrombin, enzyme assay, mean ± S.E.M. (n ≥ 3)
[7] = fMLF/CB-activated human neutrophils

Compound | IC50 (Human thrombin) | IC50 ([1]; Neutrophil) | IC50 O2^.− generation [1] | IC50 [2, 4] | IC50 ([3]; Homo sapiens, Neutrophil) | IC50 [1] | Inh % (HNE inhibition) ([2]; Table S3) | IC50 [2, 5] | IC50 (Human thrombin; [6]) | IC50 (Human cathepsin G) | IC50 (Human proteinase 3) | IC50 (Bovine chymotrypsin) | IC50 [3, 7] | IC50 ([3]; Neutrophil, fMLF/CB-activated human neutrophils) | selectivity of inhibitory effect among serine proteases [2] | IC50 HNE (NE activity / elastase release) [3, 7]
NCCc1ccc(S(=O)(=O)F)cc1 [AEBSF, 4-(2-aminoethyl)-benzenesulphonyl fluoride, reference compound] | 251 ± 8.78 µM | – | – | – | – | – | – | – | – | – | – | – | – | – | – | –
O=C(O)/C=C/c1ccc(O)c(O)c1 [CA, caffeic acid, reference compound] | – | 1.42 ± 0.02 µM | potently inhibit | > 30 µM | > 10 µM | – | – | – | – | – | – | – | – | – | – | –
O=C(C=Cc1ccc(O)c(O)c1)OC1CC(O)(C(=O)O)CC(O)C1O (centres unmarked) [Compound 1] | – | – | – | – | – | 1.54 ± 0.29 µM | -2.99 ± 1.35% | > 30 µM | > 30 µM | > 30 µM | > 30 µM | > 30 µM | > 10 µM | – | – | –
O=C(C=Cc1ccc(O)c(O)c1)OC1C(O)CC(O)(C(=O)O)CC1O (centres unmarked) [Compound 2] | – | – | – | – | – | 2.81 ± 1 µM | -3.43 ± 4.85% | > 30 µM | > 30 µM | > 30 µM | > 30 µM | > 30 µM | > 10 µM | – | – | –
O=C(/C=C/c1ccc(O)c(O)c1)O[C@@H]1C[C@](O)(C(=O)O)C[C@@H](O)[C@H]1O [Compound 3, Chlorogenic acid] | > 30 µM | 2.56 ± 1.06 µM | – | – | – | – | -4.76 ± 3.36% | > 30 µM | – | > 30 µM | > 30 µM | > 30 µM | – | > 10 µM | – | –
O=C(O)C=Cc1cccc(O)c1 [Compound 3-HCA, 3-hydroxycinnamic acid, reference compound] | – | > 10 µM | non-active | > 30 µM | > 10 µM | – | -3.63 ± 3.91% | – | – | – | – | – | – | – | – | –
O=C(/C=C/c1ccc(O)c(O)c1)O[C@H]1[C@H](O)C[C@](O)(C(=O)O)C[C@H]1OC(=O)/C=C/c1ccc(O)c(O)c1 [Compound 4, 3,4-DCQA] | – | – | – | – | – | 1.7 ± 0.28 µM | 9.91 ± 0.99% | > 30 µM | > 30 µM | > 30 µM | > 30 µM | > 30 µM | > 10 µM | – | – | –
O=C(/C=C/c1ccc(O)c(O)c1)O[C@H]1[C@H](O)C[C@](O)(C(=O)O)C[C@H]1OC(=O)/C=C/c1ccc(O)c(O)c1 [Compound 7, 4,5-DCQA] | – | – | – | – | – | 1.49 ± 0.38 µM | 36.42 ± 2.25% | > 30 µM | > 30 µM | > 30 µM | > 30 µM | > 30 µM | > 10 µM | – | – | –
C[C@H]1[C@H](C)CC[C@]2(C(=O)O)CC[C@]3(C)C(=CC[C@@H]4[C@@]5(C)CC[C@H](O)C(C)(C)[C@@H]5CC[C@]43C)[C@H]12 [Compound 9, ursolic acid] | 6.37 ± 0.6 µM | 0.99 ± 0.26 µM | good inhibitory effects | – | 1.07 ± 0.33 µM | – | – | 11.5 ± 1.28 µM | – | > 30 µM | 7.33 ± 0.65 µM | 6.06 ± 0.05 µM | – | – | non-selective inhibitory effects | good inhibitory effects
CC1(C)[C@@H](O)CC[C@]2(C)[C@H]3C=CC4=C5[C@]6(CC[C@](C)(OC6=O)[C@@]5(C)O)CC[C@@]4(C)[C@]3(C)CC[C@@H]12 [Compound 11-1] | – | – | – | – | – | > 10 µM | – | > 30 µM | > 30 µM | > 30 µM | 7.62 ± 0.32 µM | 8.06 ± 0.4 µM | > 10 µM | – | – | –
C=C1C2=C3C=C[C@@H]4[C@@]5(C)CC[C@H](O)C(C)(C)[C@@H]5CC[C@@]4(C)[C@]3(C)CC[C@@]23CC[C@]1(C)OC3=O [Compound 11-2] | – | – | – | – | – | > 10 µM | – | 8.55 ± 1.77 µM | 2.98 ± 0.35 µM | > 30 µM | 1.99 ± 0.25 µM | 6.04 ± 0.29 µM | > 10 µM | – | non-selective inhibitory effects | –
C[C@@H]1O[C@@H](O[C@H]2[C@H](O[C@H]3CC[C@]4(C)[C@H]5C=CC6=C7[C@]8(CC[C@](C)(OC8=O)[C@@]7(C)O)CC[C@@]6(C)[C@]5(C)CC[C@H]4C3(C)C)OC[C@H](O)[C@@H]2O[C@@H]2O[C@H](CO)[C@@H](O)[C@H](O)[C@H]2O)[C@H](O)[C@H](O)[C@H]1O [Compound 11] | – | – | – | – | – | > 10 µM | – | > 30 µM | > 30 µM | > 30 µM | > 30 µM | > 30 µM | > 10 µM | – | – | –
CC1(C)CC[C@]2(C(=O)O)CC[C@]3(C)C(=CC[C@@H]4[C@@]5(C)CC[C@H](O)C(C)(C)[C@@H]5CC[C@]43C)[C@@H]2[C@@H]1O [Compound 14-1] | – | – | – | – | – | 4.77 ± 0.4 µM | – | > 30 µM | > 30 µM | > 30 µM | > 30 µM | > 30 µM | 2.84 ± 1.02 µM | – | – | –
CC(C)(C)C(=O)Oc1ccc(S(=O)(=O)Nc2ccccc2C(=O)NCC(=O)O)cc1 [Elaspol, reference compound] | – | – | – | – | – | – | – | – | – | – | 0.56 ± 0.06 µM | – | – | – | – | –
COc1cc(/C=C/C(=O)O)ccc1O [FA, ferulic acid, reference compound] | – | – | non-active | > 30 µM | – | > 10 µM | 0.06 ± 4.79% | – | – | – | – | – | > 10 µM | – | – | –
O=C(O)[C@]1(O)C[C@@H](O)[C@@H](O)[C@H](O)C1 [QA, quinic acid] | – | > 10 µM | – | – | > 10 µM | – | – | – | – | – | – | – | – | – | – | –
O=C(/C=C/c1ccc(O)c(O)c1)O[C@H](Cc1ccc(O)c(O)c1)C(=O)O [RA, rosaminiric acid, reference compound] | – | – | potently inhibit | > 30 µM | – | 1.29 ± 0.09 µM | 10.58 ± 4.03% | – | – | – | – | – | > 10 µM | – | – | –
O=C(O)c1cc(O)c(O)c(O)c1 [THBA, 3,4,5-trihyroxybenzoic acid, reference compound] | – | – | potently inhibit | – | – | 1.14 ± 0.08 µM | – | – | – | – | – | – | > 10 µM | – | – | –
O=C(O)/C=C/c1ccc(O)cc1 [p-CA, p-coumaric acid, reference compound] | – | > 10 µM | non-active | > 30 µM | > 10 µM | – | -4.00 ± 3.42% | – | – | – | – | – | – | – | – | –
